Laboratory results as given in ChEMBL document CHEMBL5131502, “Improving the treatment of Parkinson's disease: Structure-based development of novel 5-HT2A receptor antagonists/inverse agonists” (Eur J Med Chem, 2022).

Experiments:
[1] = biological target: T1, 5-hydroxytryptamine receptor 2A (Homo sapiens, UniProt P28223); assay: Inverse agonist activity at 5-HT2A receptor (unknown origin) expressed in mouse NIH3T3 cells using o-nitrophenyl-D-galacto pyranoside incubated for 120 hrs; type: functional, cell-based
[2] = biological target: T1, 5-hydroxytryptamine receptor 2A; assay: Antagonist activity at 5-HT2A receptor (unknown origin) expressed in CHO-K1 cells assessed as reduction in intracellular Ca2+ mobilization incubated for 15 mins by FLIPR assay; type: functional, cell-based
[3] = Apparent volume of distribution during terminal state in Sprague-Dawley rat at 3 mg/kg, IG measured upto 24 hrs by LC-MS/MS analysis; type: ADME, organism-based; conditions: in vivo, po, read-out: Vz/F
[4] = Half life in Sprague-Dawley rat at 3 mg/kg, IG measured upto 24 hrs by LC-MS/MS analysis; type: ADME, organism-based; conditions: in vivo, po
[5] = Tmax in Sprague-Dawley rat at 3 mg/kg, IG measured upto 24 hrs by LC-MS/MS analysis; type: ADME, organism-based; conditions: in vivo, po
[6] = Cmax in Sprague-Dawley rat at 3 mg/kg, IG measured upto 24 hrs by LC-MS/MS analysis; type: ADME, organism-based; parameters: dose 3 mg/kg, time < 24 hrs, route ig; conditions: in vivo, po
[7] = AUClast in Sprague-Dawley rat at 3 mg/kg, IG measured upto 24 hrs by LC-MS/MS analysis; type: ADME, organism-based; parameters: time < 24 hrs, dose 3 mg/kg, route ig; conditions: in vivo, po
[8] = MRTlast in Sprague-Dawley rat at 3 mg/kg, IG measured upto 24 hrs by LC-MS/MS analysis; type: ADME, organism-based; conditions: in vivo, po
[9] = Metabolic stability in Sprague-Dawley rat liver microsomes assessed as compound remaining at 100 uM […] followed by NADPH addition by LC/MS analysis; type: ADME, Microsome; conditions: read-out: Stability
[10] = biological target: Voltage-gated inwardly rectifying potassium channel KCNH2 (Homo sapiens, UniProt Q12809); assay: Inhibition of hERG potassium channel expressed in CHO cells at -80 mV holding potential by whole cell patch clamp assay; type: toxicity, cell-based
[11] = Metabolic stability in Sprague-Dawley rat liver microsomes assessed as half life at 100 uM preincubated for 10 mins followed by NADPH addition by LC/MS analysis; type: ADME, Microsome
[12] = Metabolic stability in human liver microsomes assessed as half life at 100 uM preincubated for 10 mins followed by NADPH addition by LC/MS analysis; type: ADME, Microsome
[13] = Metabolic stability in Sprague-Dawley rat liver microsomes assessed as intrinsic clearance at 100 uM preincubated for 10 mins followed by NADPH addition by LC/MS analysis; type: ADME, Microsome; conditions: read-out: CLH
[14] = Metabolic stability in human liver microsomes assessed as intrinsic clearance at 100 uM preincubated for 10 mins followed by NADPH addition by LC/MS analysis; type: ADME, Microsome; conditions: read-out: CLH
[15] = Metabolic stability in human liver microsomes assessed as compound remaining at 100 uM […] followed by NADPH addition by LC/MS analysis; type: ADME, Microsome; conditions: read-out: Stability
[16] = biological target: T1, 5-hydroxytryptamine receptor 2A; assay: Potency index, ratio of pimavanserin IC50 to test compound IC50 for antagonist activity at 5-HT2A receptor (unknown origin) expressed in CHO-K1 cells assessed as reduction in intracellular Ca2+ mobilization incubated for 15 mins by FLIPR assay; type: functional, cell-based
[17] = biological target: T1, 5-hydroxytryptamine receptor 2A; assay: Potency index, ratio of pimavanserin IC50 to test compound IC50 for inverse agonist activity at 5-HT2A receptor (unknown origin) expressed in mouse NIH3T3 cells using o-nitrophenyl-D-galacto pyranoside incubated for 120 hrs; type: cell-based

T1 sequence (P28223 whole entry): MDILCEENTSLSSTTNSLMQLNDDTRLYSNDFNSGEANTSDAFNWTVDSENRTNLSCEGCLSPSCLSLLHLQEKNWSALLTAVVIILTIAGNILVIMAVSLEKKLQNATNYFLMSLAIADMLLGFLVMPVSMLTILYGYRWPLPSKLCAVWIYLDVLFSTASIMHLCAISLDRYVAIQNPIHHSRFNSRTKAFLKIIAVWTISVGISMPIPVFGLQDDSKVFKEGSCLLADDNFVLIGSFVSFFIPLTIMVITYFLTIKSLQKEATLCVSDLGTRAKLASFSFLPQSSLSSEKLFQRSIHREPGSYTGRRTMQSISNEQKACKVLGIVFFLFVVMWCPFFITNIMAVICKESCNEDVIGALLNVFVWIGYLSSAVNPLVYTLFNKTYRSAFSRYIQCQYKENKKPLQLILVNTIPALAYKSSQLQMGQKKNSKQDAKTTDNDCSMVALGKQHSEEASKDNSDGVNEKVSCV
Sequence of Voltage-gated inwardly rectifying potassium channel KCNH2 (Q12809 whole entry): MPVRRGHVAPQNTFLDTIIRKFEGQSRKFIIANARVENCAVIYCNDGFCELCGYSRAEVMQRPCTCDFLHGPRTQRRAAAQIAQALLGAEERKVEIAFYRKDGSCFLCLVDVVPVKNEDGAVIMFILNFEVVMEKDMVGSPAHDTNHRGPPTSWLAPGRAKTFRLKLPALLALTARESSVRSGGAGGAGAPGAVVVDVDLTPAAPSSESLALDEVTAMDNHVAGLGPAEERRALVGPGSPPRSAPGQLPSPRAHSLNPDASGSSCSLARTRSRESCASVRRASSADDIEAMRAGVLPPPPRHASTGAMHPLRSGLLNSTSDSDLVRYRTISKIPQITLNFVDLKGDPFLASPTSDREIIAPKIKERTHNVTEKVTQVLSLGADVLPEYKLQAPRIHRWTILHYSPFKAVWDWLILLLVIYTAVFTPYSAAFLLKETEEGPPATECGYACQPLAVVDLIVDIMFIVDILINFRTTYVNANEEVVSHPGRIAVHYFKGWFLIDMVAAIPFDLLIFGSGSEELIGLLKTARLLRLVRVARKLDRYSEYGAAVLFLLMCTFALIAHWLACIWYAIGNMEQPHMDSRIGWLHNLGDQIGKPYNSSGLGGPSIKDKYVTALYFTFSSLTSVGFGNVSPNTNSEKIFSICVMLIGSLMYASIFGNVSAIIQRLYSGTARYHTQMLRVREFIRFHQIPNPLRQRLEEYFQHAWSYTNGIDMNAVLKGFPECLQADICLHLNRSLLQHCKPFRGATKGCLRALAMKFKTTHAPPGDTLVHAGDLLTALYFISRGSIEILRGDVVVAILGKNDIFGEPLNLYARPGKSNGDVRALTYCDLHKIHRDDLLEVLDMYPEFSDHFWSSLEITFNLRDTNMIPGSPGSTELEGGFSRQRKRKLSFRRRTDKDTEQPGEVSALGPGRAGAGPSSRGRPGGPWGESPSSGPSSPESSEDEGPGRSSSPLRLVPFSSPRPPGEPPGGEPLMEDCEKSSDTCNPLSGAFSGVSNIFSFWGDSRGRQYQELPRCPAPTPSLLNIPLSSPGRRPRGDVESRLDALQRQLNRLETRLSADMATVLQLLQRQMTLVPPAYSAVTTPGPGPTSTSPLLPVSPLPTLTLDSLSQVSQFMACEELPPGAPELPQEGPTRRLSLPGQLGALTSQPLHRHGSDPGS

With `CN1CCC(N(Cc2ccc(F)cn2)C(=O)NCc2ccc3c(c2)CCC(C)(C)O3)CC1` the IC50 [1] was 127 nM.
In the case of `CC(C)COc1ccc(CNC(=O)N(Cc2ncc(F)cc2F)C2CCN(C)CC2)cc1`, the IC50 [2] is reported as 43.2 nM.
For `CN1CCC(N(Cc2ccc(F)cn2)C(=O)NCc2ccc(OCC(F)(F)F)c(Cl)c2)CC1`, the IC50 [2] was 125 nM and the IC50 [1] was 134 nM.
In the case of `Cc1noc(C)c1CN(C(=O)NCc1ccc(OCC(C)C)cc1)C1CCN(C)CC1`, the IC50 [2] is reported as > 500 nM and the IC50 [1] is reported as > 500 nM.
Compound `CC(C)COc1ccc(CNC(=O)N(Cc2ccc(F)cc2)C2CCN(C)CC2)cc1.O=C(O)C(O)C(O)C(=O)O` has a Vd/F [3] of 0.155 L/kg, a half-life [4] of 1.28 h and a Tmax [5] of 0.5 h. The Cmax [6] was 43.3 nM, the AUC(0-t) at 24 h [7] was 0.0786 µM·h and the MRT last at 24 h [8] was 1.82 h.
`CN1CCC(N(Cc2ccc(F)cn2)C(=O)NCc2ccc3c(c2)CC(C)(C)O3)CC1` showed a remaining at 100 µM [9] of 55%, an IC50 [10] of 3610 nM and a half-life at 100 µM [11] of 1.06 h. For the same compound, the half-life at 100 µM [12] was 1.75 h, the CLint scaled at 100 µM [13] was 37.1 mL/min/kg and the CLint scaled at 100 µM [14] was 11.9 mL/min/kg. For the same compound, the remaining at 100 µM [15] was 66.8%.
For `CC(C)COc1ccc(CNC(=O)N(Cc2cccc3sccc23)C2CCN(C)CC2)cc1`, the IC50 [2] was > 500 nM, the IC50 [1] was > 500 nM and the Ratio IC50 [16] was > 15. The Ratio IC50 [17] was > 10.
